Reference: patent publication US20080261902A1, “Pharmaceutical composition containing polydatin and its application” (Shenzhen Neptunus Pharmaceutical Co., Ltd., priority 2005, published 2008)
≈ marks a conversion by molar mass, not a printed value.

How the values were obtained:
[1] = tested on: SD rats, shock related to skin burn; assay: Treatment action for shock related to skin burn (Embodiment A8); assay type: in vivo; details: 2.4 mg/kg venous injection half hour after burning; control 7.0±2.6 hours
[2] = tested on: dogs in hemorrhagic shock; assay: Treatment effect of polydatin drug compositions to dogs in hemorrhagic shock (Embodiment 20); assay type: in vivo, Beagle dogs; details: for survival rate: 168 hours
[3] = Polydatin solutions prepared by conventional methods (high pH, heating, tween 80); assay type: physicochemical
Excerpt: It is widely known by technicians in the field that clinic solutions require pH4.0˜9.0. Obviously, it is hard to prepare polydatin water solution of effective concentration by adjusting pH only. Furthermore, the polydatin has bad stability in solutions of high pH, so the clinic application of the polydatin drug composition preparations of high pH will be further limited. The described document No. 19 adopts heating to dissolve to obtain polydatin drug compositions. According to the experiment, the solutions obtained by heating to dissolve precipitate solute as the temperature reduces, and the polydatin concentrations in the solutions are lower than 0.5 mg/ml after indoor temperature balancing. Obviously, the method is not suitable in preparing officinal medicine preparations. China Patent Application 02134928.2 describes a method of preparing polydatin solutions for injection by adopting adjusting pH and/or adding surfactants (tween 80). […] Furthermore, the prior documents indicate that preparations of administration in vein should be avoided to use as possible because tween surfactants have potential hemolytic and antihypertensive activity. (Zhuangyue etc., applied drug preparation technique, People's medical publishing house 1999:p417)

[4] = tested on: shock caused by bleeding in rats; details: versus equal dose of comparators; cited from earlier work
[5] = Effect of pH to solubility of polydatin (Embodiment 12); assay type: physicochemical; details: for solubility at 8 h: deionized water of adjusted pH, thermodynamic from solid, water, room temperature
Method: • 1. Materials: Deionized water, […] industry city; sodium hydroxide, Dongguan dongjiang chemical reagent co., ltd.; hydrochloric acid, Dongguan dongjiang chemical reagent co., ltd. • 2. Method: Regulating deionized water into pH of 5.0˜12.0 with 0.2N sodium hydroxide and 0.2N hydrochloric acid. Measuring precisely 20 ml each of above solutions, adding polydatin of proper amount respectively, treating with ultrasonic for 20 min under 40° C., supersaturating the solution, placing for 8 h under room temperature, filtering with 0.45 μm microporous membrane, wherein the filtrates are saturated solutions of polydatin in water solutions of different pHs. Adopting HPLC method to determine content of polydatin in the filtrates and calculate solubility of polydatin referring to document 20 (Wuye etc., determination content of resveratrol glycoside and tangerine peel glycoside in qing dan capsule with HPLC method, Chinese traditional patent medicine, 1999, 21(5): 226). • 3.

[6] = Solubility of polydatin in alcohol-propanediol-water mixed solvent (Embodiment 15); assay type: physicochemical; details: for solubility at 8 h: aqueous with cosolvent or surfactant or cyclodextrin, thermodynamic from solid
Excerpt: 1. Materials: Anhydrous alcohol, analytically pure, Guangzhou No. 2 chemical reagent factory; 1,2-propanediol, analytically pure, Guangzhou No. 2 chemical reagent factory; purified water, […] industry city. 2. Method: Precisely measuring alcohol water solution of 45%, 60%, 75%(v/v), precisely adding propanediol at volume proportions of 10:1, 10:2, 10:2.5, 10:3, 10:4, preparing mixed solvents. The mixed solvents obtained contain propanediol of about 10%˜30%(v/v), alcohol of about 32%˜68%(v/v). Precisely measuring 20 ml of each above mixed solvent, adding polydatin of proper amount respectively, treating with ultrasonic for 20 min under 40° C., supersaturating the solution, placing for 8 h under room temperature, filtering with 0.45 μm microporous membrane, wherein the filtrates are saturated solutions of polydatin in different mixed solutions. Adopting HPLC method to determine content of polydatin in the filtrates and calculate solubility of polydatin referring to document 20.

[7] = Solubility of polydatin in alcohol-water solution and normal saline (Embodiment 13); assay type: physicochemical; details: room temperature; for solubility at 8 h: thermodynamic from solid
Method: • 1. Materials: Anhydrous alcohol, analytically pure, Guangzhou No.2 chemical reagent factory; purified water, […] industry city; 0.9% sodium chloride injection, batch number C040514-092, Sichuan kelun pharmaceutical co., ltd. • 2. Method: Preparing alcohol water solutions having concentration of 15%, […] 30%, 40%, 50%, 60%, 70%, 80%, 90%, 95%(v/v) with anhydrous alcohol and purified water. Precisely Measuring water, anhydrous alcohol, 0.9% sodium chloride injection (normal saline) and 20 ml alcohol water solution of each above concentration, adding polydatin of proper amount respectively, treating with ultrasonic for 20 min under 40 □, supersaturating the solution, placing for 8 h under room temperature, filtering with 0.45 μm microporous membrane, wherein the filtrates are saturated solutions of polydatin in alcohol water solutions of different concentration. Adopting HPLC method to determine content of polydatin in the filtrates and calculate solubility of polydatin referring to document 20. • 3. Result: […]

[8] = tested on: blood platelet; details: 6˜100 μmol/L; cited from earlier work

OCC1OC(Oc2cc(O)cc(/C=C/c3ccc(O)cc3)c2)C(O)C(O)C1O [polydatin, 3,4′,5-trihydroxy-trans stilbene-3-β-D-glucoside]
average survival period [1]: > 13.3 h
survival rate ([2]; 1.8 mg/kg): 3 number/5
survival rate ([2]; 3.0 mg/kg): 4 number/5
survival rate ([2]; 5.0 mg/kg): 4 number/5
average arterial pressure (FIG. 1) ([2]; high dose 5.0 mg/kg, compared with blank control and dopamine groups): can maintain blood pressure of dogs after acute hemorrhage
sensitivity of polydatin (solution) [3]: sensitive to temperature and light
polydatin concentration in solutions obtained by heating to dissolve ([3]; after indoor temperature balancing): lower than 0.5 mg/ml
stability in solutions of high pH ([3]; high pH): bad stability
cold preservation of polydatin drug composition ([3]; tween 80 of 0.5%, pH8.5, concentration 4 mg/ml, 4° C.): can not be cold preserved
treatment effect to shock caused by bleeding [4]: better than that of using an equal dose of Dopamine and Anisodamine hydrobromide
pH of the solution needed to obtain polydatin water solution ([5]; concentration above 3 mg/ml): above 12
solubility at 8 h ([5]; pH 5, aqueous buffer, pH of solvent 5.0): < 0.5 mg/mL
solubility at 8 h ([5]; pH 6, aqueous buffer, pH of solvent 6.0): < 0.5 mg/mL
solubility at 8 h ([5]; pH 7, aqueous buffer, pH of solvent 7.0): < 0.5 mg/mL
solubility at 8 h ([5]; pH 8, aqueous buffer, pH of solvent 8.0): < 0.5 mg/mL
solubility at 8 h ([5]; pH 9, aqueous buffer, pH of solvent 9.0): < 0.5 mg/mL
solubility at 8 h ([5]; pH 10, aqueous buffer, pH of solvent 10.0): < 0.5 mg/mL
solubility at 8 h ([5]; pH 11, aqueous buffer, pH of solvent 11.0): 0.7 mg/mL (≈ 1.79 mM)
solubility at 8 h ([5]; pH 12, aqueous buffer, pH of solvent 12.0): ~5 mg/mL (≈ 12.8 mM)
pH of final solution ([5]; pH of solvent 12): about 10
pH of the final solution ([5]; polydatin water solution of concentration above 3 mg/ml): above 10
solubility at 8 h ([6]; alcohol-propanediol-water mixed solvent, 45% alcohol water/propanediol 10/1): 27.8 mg/mL (≈ 71.2 mM)
solubility at 8 h ([6]; alcohol-propanediol-water mixed solvent, 45% alcohol water/propanediol 10/2): 34.3 mg/mL (≈ 87.9 mM)
solubility at 8 h ([6]; alcohol-propanediol-water mixed solvent, 45% alcohol water/propanediol 10/2.5): 39.5 mg/mL (≈ 101 mM)
solubility at 8 h ([6]; alcohol-propanediol-water mixed solvent, 45% alcohol water/propanediol 10/3): 42.4 mg/mL (≈ 109 mM)
solubility at 8 h ([6]; alcohol-propanediol-water mixed solvent, 45% alcohol water/propanediol 10/4): 52.2 mg/mL (≈ 134 mM)
solubility at 8 h ([6]; alcohol-propanediol-water mixed solvent, 60% alcohol water/propanediol 10/1): 55.7 mg/mL (≈ 143 mM)
solubility at 8 h ([6]; alcohol-propanediol-water mixed solvent, 60% alcohol water/propanediol 10/2): 66.4 mg/mL (≈ 170 mM)
solubility at 8 h ([6]; alcohol-propanediol-water mixed solvent, 60% alcohol water/propanediol 10/2.5): ~75 mg/mL (≈ 192 mM)
solubility at 8 h ([6]; alcohol-propanediol-water mixed solvent, 60% alcohol water/propanediol 10/3): 93.3 mg/mL (≈ 239 mM)
solubility at 8 h ([6]; alcohol-propanediol-water mixed solvent, 60% alcohol water/propanediol 10/4): 95.2 mg/mL (≈ 244 mM)
solubility at 8 h ([6]; alcohol-propanediol-water mixed solvent, 75% alcohol water/propanediol 10/1): 81.5 mg/mL (≈ 209 mM)
solubility at 8 h ([6]; alcohol-propanediol-water mixed solvent, 75% alcohol water/propanediol 10/2): 89.8 mg/mL (≈ 230 mM)
solubility at 8 h ([6]; alcohol-propanediol-water mixed solvent, 75% alcohol water/propanediol 10/2.5): 92.9 mg/mL (≈ 238 mM)
solubility at 8 h ([6]; alcohol-propanediol-water mixed solvent, 75% alcohol water/propanediol 10/3): 98.4 mg/mL (≈ 252 mM)
solubility at 8 h ([6]; alcohol-propanediol-water mixed solvent, 75% alcohol water/propanediol 10/4): 116 mg/mL (≈ 297 mM)
solubility at 8 h ([6]; alcohol-water solution without propanediol, 45% alcohol water, no propanediol (10/—)): 20.2 mg/mL (≈ 51.7 mM)
solubility at 8 h ([6]; alcohol-water solution without propanediol, 60% alcohol water, no propanediol (10/—)): 42.5 mg/mL (≈ 109 mM)
solubility at 8 h ([6]; alcohol-water solution without propanediol, 75% alcohol water, no propanediol (10/—)): 75.1 mg/mL (≈ 192 mM)
concentration of polydatin ([6]; mixed solvent of 60% alcohol-water and propanediol 10:2.0~10:4.0): higher than 60 mg/ml
solubility at 8 h ([7]; alcohol-water solution, aqueous with cosolvent or surfactant or cyclodextrin, alcohol water solution 50%~95% (v/v)): > 20 mg/mL
solubility at 8 h ([7]; alcohol-water solution, aqueous with cosolvent or surfactant or cyclodextrin, content of alcohol 15% (v/v) in water): ~1 mg/mL (≈ 2.56 mM)
solubility at 8 h ([7]; alcohol-water solution, aqueous with cosolvent or surfactant or cyclodextrin, content of alcohol 30% (v/v) in water): ~6 mg/mL (≈ 15.4 mM)
solubility at 8 h ([7]; alcohol-water solution, aqueous with cosolvent or surfactant or cyclodextrin, content of alcohol 40% (v/v) in water): 9.2 mg/mL (≈ 23.6 mM)
solubility at 8 h ([7]; alcohol-water solution, aqueous with cosolvent or surfactant or cyclodextrin, content of alcohol 50% (v/v) in water): ~25 mg/mL (≈ 64 mM)
solubility at 8 h ([7]; alcohol-water solution, aqueous with cosolvent or surfactant or cyclodextrin, content of alcohol 60% (v/v) in water): ~42 mg/mL (≈ 108 mM)
solubility at 8 h ([7]; alcohol-water solution, aqueous with cosolvent or surfactant or cyclodextrin, content of alcohol 70% (v/v) in water): ~80 mg/mL (≈ 205 mM)
solubility at 8 h ([7]; alcohol-water solution, aqueous with cosolvent or surfactant or cyclodextrin, content of alcohol 80% (v/v) in water): 76.8 mg/mL (≈ 197 mM)
solubility at 8 h ([7]; alcohol-water solution, aqueous with cosolvent or surfactant or cyclodextrin, content of alcohol 90% (v/v) in water): ~75 mg/mL (≈ 192 mM)
solubility at 8 h ([7]; alcohol-water solution, aqueous with cosolvent or surfactant or cyclodextrin, content of alcohol 95% (v/v) in water): 30.7 mg/mL (≈ 78.6 mM)
solubility at 8 h ([7]; anhydrous alcohol, organic solvent or mixture, content of alcohol 100% (anhydrous alcohol)): ~20 mg/mL (≈ 51.2 mM)
solubility ([7]; content of alcohol 70% (v/v) in water): 80.9 mg/mL (≈ 207 mM)
solubility at 8 h ([7]; normal saline, saline or isotonic, normal saline (0.9% sodium chloride injection)): < 0.5 mg/mL
solubility at 8 h ([7]; purified water, water, content of alcohol 0% (purified water)): < 0.5 mg/mL
production of the platelet accumulation and B2 thrombus induced by AA and ADP [8]: capable of inhibiting
